Reference: patent publication US4138403A, “Azabicycloheptanes” (Beecham Group Limited, priority 1975, dated 1979)

Experiments:
Assay type in all cases: biochemical
β-lactamase Citrobac. = experiment: β-lactamase inhibition, Citrobac. enzyme
Procedure: (§1) The β-lactamase inhibiting activity of certain compounds of the formula (e36) was determined by the method described in Belgian Patent No. 827,926 and the results are shown in Table 1.

β-lactamase Ps. dalgl. = β-lactamase Ps. dalgl. (Pseudomonas aeruginosa, UniProt P16897); experiment: β-lactamase inhibition, Ps. dalgl. enzyme; details: read-out: % Inhibition of - lactamases at 40 μg/ml, Ps. dalgl.
β-lactamase Ps. dalgl., sequence (P16897 18-288): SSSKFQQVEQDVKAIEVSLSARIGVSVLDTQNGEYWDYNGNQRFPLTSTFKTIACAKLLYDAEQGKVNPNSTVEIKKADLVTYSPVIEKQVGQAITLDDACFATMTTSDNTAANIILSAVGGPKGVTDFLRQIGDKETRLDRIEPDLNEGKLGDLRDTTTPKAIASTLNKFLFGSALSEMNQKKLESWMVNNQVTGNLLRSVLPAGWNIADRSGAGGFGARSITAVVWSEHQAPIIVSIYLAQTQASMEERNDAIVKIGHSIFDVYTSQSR
Procedure: as §1

β-lactamase E.Coli JT4 = β-lactamase E.Coli JT4 (Escherichia coli, UniProt P62593); experiment: β-lactamase inhibition, E.Coli JT4 enzyme; details: read-out: % Inhibition of - lactamases at 40 μg/ml, E.Coli JT4
β-lactamase E.Coli JT4, sequence (P62593 24-286 limits assumed): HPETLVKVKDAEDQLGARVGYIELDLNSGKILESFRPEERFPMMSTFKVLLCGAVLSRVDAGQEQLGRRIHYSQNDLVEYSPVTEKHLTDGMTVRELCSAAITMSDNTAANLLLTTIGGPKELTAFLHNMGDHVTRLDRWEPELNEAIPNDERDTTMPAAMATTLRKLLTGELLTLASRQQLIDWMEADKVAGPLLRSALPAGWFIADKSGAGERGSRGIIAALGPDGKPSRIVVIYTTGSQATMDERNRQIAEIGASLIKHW
Procedure: as §1

[1] = target: β-lactamase Staph. Russell (Staphylococcus aureus, UniProt P00807); experiment: β-lactamase inhibition, Staph. Russell enzyme; details: read-out: % Inhibition of - lactamases at 40 μg/ml, Staph. Russell
β-lactamase Staph. Russell, sequence (P00807 25-281): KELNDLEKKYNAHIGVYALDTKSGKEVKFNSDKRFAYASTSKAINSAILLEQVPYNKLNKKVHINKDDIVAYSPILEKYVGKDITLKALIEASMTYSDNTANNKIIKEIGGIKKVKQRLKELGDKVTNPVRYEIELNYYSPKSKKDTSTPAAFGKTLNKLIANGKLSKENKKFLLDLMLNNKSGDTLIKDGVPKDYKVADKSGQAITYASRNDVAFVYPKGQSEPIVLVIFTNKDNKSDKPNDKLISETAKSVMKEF
Procedure: as §1

β-lactamase Kleb. ε 70 = experiment: β-lactamase inhibition, Kleb. ε 70 enzyme
Procedure: as §1

β-lactamase Ps. aerug. = β-lactamase Ps. aerug. (Pseudomonas aeruginosa, UniProt P24735); experiment: β-lactamase inhibition, Ps. aerug. enzyme; details: read-out: % Inhibition of - lactamases at 40 μg/ml, Ps. aerug.
β-lactamase Ps. aerug., sequence (P24735 27-397): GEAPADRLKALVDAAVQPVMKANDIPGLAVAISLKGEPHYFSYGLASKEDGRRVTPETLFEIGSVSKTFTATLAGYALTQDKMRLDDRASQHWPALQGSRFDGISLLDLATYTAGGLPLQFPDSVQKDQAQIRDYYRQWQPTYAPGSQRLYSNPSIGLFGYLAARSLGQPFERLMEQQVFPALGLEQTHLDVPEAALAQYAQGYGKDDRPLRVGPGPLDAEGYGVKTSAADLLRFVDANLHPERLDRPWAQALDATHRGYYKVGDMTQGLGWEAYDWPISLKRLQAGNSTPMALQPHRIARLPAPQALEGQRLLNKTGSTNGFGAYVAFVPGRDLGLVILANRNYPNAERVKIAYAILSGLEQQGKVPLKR
Procedure: as §1

β-lactamase Proteus C889 = experiment: β-lactamase inhibition, Proteus C889 enzyme
Procedure: as §1

| Compound | % Inhibition of - lactamases at 40 μg/ml, Citrobac. (β-lactamase Citrobac.) [%] | inhibition at 40 µg/mL (β-lactamase Ps. dalgl.) [%] | inhibition at 40 µg/mL (β-lactamase E.Coli JT4) [%] | inhibition at 40 µg/mL [1] [%] | % Inhibition of - lactamases at 40 μg/ml, Kleb. ε 70 (β-lactamase Kleb. ε 70) [%] | inhibition at 40 µg/mL (β-lactamase Ps. aerug.) [%] | I50 values (in parentheses), Citrobac. (β-lactamase Citrobac.; value printed in parentheses) [µg/mL] | % Inhibition of - lactamases at 40 μg/ml, Proteus C889 (β-lactamase Proteus C889) [%] |
| --- | --- | --- | --- | --- | --- | --- | --- | --- |
| COC(=O)[C@H]1[C@H](CCOS(=O)(=O)c2ccc(C)cc2)O[C@@H]2CC(=O)N21 (relative stereo) | 5 | 11 | 33 | 4 | 0 | 11 | – | – |
| COC(=O)[C@H]1[C@H](CBr)O[C@@H]2CC(=O)N21 (relative stereo) [CH2 Br, CO2 CH3, (2RS,3RS,5RS)] | – | 17 | 42 | 12 | 4 | 8 | 10.3 | 42 |
| COC(=O)[C@H]1[C@H](CCO)O[C@@H]2CC(=O)N21 (relative stereo) [CH2 CH2 OH, Me, (2RS,3SR,5RS)] | 2 | 0 | 15 | 10 | 14 | 10 | – | 29 |
| O=C(O)[C@H]1CO[C@@H]2CC(=O)N12 (relative stereo) [H, Na, (2RS,5RS)] | 0 | 0 | 28 | 33 | 78 | 14 | – | – |
| O=C(OCc1ccccc1)[C@@H]1O[C@@H]2CC(=O)N2[C@H]1C(=O)OCc1ccccc1 [CO2 CH2 Ph, CO2 CH2 Ph, (2R,3R,5R), Dibenzyl (2R, 3R, 5R)-7-oxo-4-oxa-1-azabicyclo-[3.2.0]heptan-2,3-Dicarboxylate] | 2 | 26 | 65 | 0 | 56 | 9 | – | 23 |
